{
  "source": "paper PMC9570211",
  "about": "“Analysis of 1-Aroyl-3-[3-chloro-2-methylphenyl] Thiourea Hybrids as Potent Urease Inhibitors: Synthesis, Biochemical Evaluation and Computational Approach” (International Journal of Molecular Sciences, 2022)",
  "key": {"jack bean urease (JBU) [1]": {"target": "T1, jack bean urease (JBU) (Canavalia ensiformis, UniProt P07374)", "T1 sequence (P07374 whole entry, looked up)": "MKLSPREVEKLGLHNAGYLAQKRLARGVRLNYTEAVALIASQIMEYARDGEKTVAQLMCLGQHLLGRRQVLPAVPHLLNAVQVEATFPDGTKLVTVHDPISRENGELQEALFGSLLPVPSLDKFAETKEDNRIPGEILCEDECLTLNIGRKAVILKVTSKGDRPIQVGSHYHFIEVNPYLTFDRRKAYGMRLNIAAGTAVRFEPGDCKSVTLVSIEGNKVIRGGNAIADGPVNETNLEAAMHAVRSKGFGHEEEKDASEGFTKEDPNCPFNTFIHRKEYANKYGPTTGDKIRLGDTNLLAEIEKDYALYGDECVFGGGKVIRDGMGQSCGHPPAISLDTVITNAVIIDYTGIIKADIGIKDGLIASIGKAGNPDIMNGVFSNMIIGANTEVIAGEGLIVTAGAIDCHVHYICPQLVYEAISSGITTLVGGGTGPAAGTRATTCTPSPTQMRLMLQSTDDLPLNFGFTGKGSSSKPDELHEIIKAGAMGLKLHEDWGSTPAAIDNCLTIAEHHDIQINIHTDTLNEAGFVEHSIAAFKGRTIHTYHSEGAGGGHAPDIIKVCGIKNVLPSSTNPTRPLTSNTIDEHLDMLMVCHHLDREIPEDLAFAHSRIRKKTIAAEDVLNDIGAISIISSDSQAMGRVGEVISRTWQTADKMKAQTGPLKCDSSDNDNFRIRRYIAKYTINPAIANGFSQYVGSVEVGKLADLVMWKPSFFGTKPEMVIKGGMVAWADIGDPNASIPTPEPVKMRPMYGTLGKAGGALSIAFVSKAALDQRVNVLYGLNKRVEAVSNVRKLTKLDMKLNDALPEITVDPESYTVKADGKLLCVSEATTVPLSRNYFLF", "test": "biochemical", "experimental": "Hydrophobic and hydrophilic groups were substituted on a phenyl ring in the novel analogues 4a–j that were synthesized in order to check urease inhibition activity.\nThe function of nitro, chloro, methyl and ethyl substitution in urease inhibitory activity was evaluated. Thiourea, a well-known urease inhibitor, served as the reference compound.\nThe methodology used in this research for in vitro urease inhibitory activity is the same as reported in our earlier paper."}, "[2]": {"test": "DPPH free radical scavenging assay", "settings": "in comparison of standard Vitamin C; up to 100 µg/mL", "experimental": "All of the produced 1-aroyl-3-[3-chloro-2-methylphenyl]thiourea compounds were assessed for the ability of DPPH free radical scavenging activity as depicted in Figure 2.\nThe assay performed in our studies had the same methodology as reported in our previous research articles."}, "jack bean urease (JBU) [3]": {"target": "T1, jack bean urease (JBU)", "test": "Kinetic analysis of urease inhibition (Lineweaver–Burk)", "type": "biochemical", "description": "Kinetic investigations provided additional evidence for the inhibitory function, in which the potential of the potent derivative 4i to inhibit the substrate at different concentrations in such a way that enzyme concentration remained constant. The kinetic tests of the enzyme gave a series of straight lines by the Lineweaver–Burk plot of 1/V versus 1/[S] in the presence of varying compound concentrations (Figure 3A).\nKinetics performed here as stated previously in our research articles was used for urease activity determination.\nFigure 3 Compound 4i inhibiting urease in a Lineweaver–Burk plot (A) Concentrations of 4i were 0.00, 0.001, 0.002 and 0.004 µM (Blue, green, red and black colored lines). […] The lines were constructed using least squares linear regression mean ± SEM."}},
  "note": "Where two headings read alike, the source gives them in different places.",
  "data": [
    {"smiles": "Cc1c(Cl)cccc1NC(=S)NC(=O)c1ccccc1", "note": "[Compound 4a, N-[[3-chloro-2-methylphenyl]carbamothioyl]benzamide]", "values": [
      {"measurement": "IC50", "setting": "jack bean urease (JBU) [1]", "value": "0.0449 ± 0.0854", "unit": "µM"}
    ]},
    {"smiles": "COc1ccc(C(=O)NC(=S)Nc2cccc(Cl)c2C)cc1", "note": "[Compound 4b]", "values": [
      {"measurement": "IC50", "setting": "jack bean urease (JBU) [1]", "value": "0.0079 ± 0.0048", "unit": "µM"}
    ]},
    {"smiles": "Cc1c(Cl)cccc1NC(=S)NC(=O)c1cc([N+](=O)[O-])cc([N+](=O)[O-])c1", "note": "[Compound 4g]", "values": [
      {"measurement": "IC50", "setting": "jack bean urease (JBU) [1]", "value": "0.0335 ± 0.0994", "unit": "µM"},
      {"measurement": "DPPH free radical scavenging activity", "setting": "[2]", "value": "good activity"}
    ]},
    {"smiles": "Cc1c(Cl)cccc1NC(=S)NC(=O)c1cccc([N+](=O)[O-])c1", "note": "[Compound 4f]", "values": [
      {"measurement": "IC50", "setting": "jack bean urease (JBU) [1]", "value": 0.0136, "unit": "µM"},
      {"measurement": "DPPH free radical scavenging activity", "setting": "[2]", "value": "good activity"}
    ]},
    {"smiles": "Cc1c(Cl)cccc1NC(=S)NC(=O)c1ccccc1Cl", "note": "[Compound 4i]", "values": [
      {"measurement": "IC50", "setting": "jack bean urease (JBU) [1]", "value": "0.0019 ± 0.0011", "unit": "µM"},
      {"measurement": "DPPH free radical scavenging activity", "setting": "[2]", "value": "good activity"},
      {"measurement": "Ki", "setting": "jack bean urease (JBU) [3]", "value": 0.0003, "unit": "µM"},
      {"measurement": "Inhibition Type", "setting": "jack bean urease (JBU) [3]; Lineweaver–Burk plot", "value": "Non-Competitive"},
      {"measurement": "Vmax", "setting": "jack bean urease (JBU) [3]; concentration of 4i 0.001 (µM per Figure 3)", "value": "0.000387 ΔA/Min"},
      {"measurement": "Vmax", "setting": "jack bean urease (JBU) [3]; concentration of 4i 0.002 (µM per Figure 3)", "value": "0.000131 ΔA/Min"},
      {"measurement": "Vmax", "setting": "jack bean urease (JBU) [3]; concentration of 4i 0.004 (µM per Figure 3)", "value": "8.495 × 10^−5 ΔA/Min"}
    ]},
    {"smiles": "Cc1ccc(C(=O)NC(=S)Nc2cccc(Cl)c2C)cc1", "note": "[Compound 4d]", "values": [
      {"measurement": "IC50", "setting": "jack bean urease (JBU) [1]", "value": "0.0532 ± 0.0995", "unit": "µM"},
      {"measurement": "DPPH free radical scavenging activity", "setting": "[2]", "value": "good activity"}
    ]},
    {"smiles": "Cc1c(Cl)cccc1NC(=S)NC(=O)c1ccc([N+](=O)[O-])cc1", "note": "[Compound 4e]", "values": [
      {"measurement": "DPPH free radical scavenging activity", "setting": "[2]", "value": "good activity"}
    ]},
    {"smiles": "NC(N)=S", "note": "[Thiourea]", "values": [
      {"measurement": "IC50", "setting": "jack bean urease (JBU) [1]; jack bean urease, mean ± SEM, read-out: Urease Activity IC50 ± SEM", "value": "4.75 ± 0.0545", "unit": "µM"}
    ]},
    {"smiles": "Cc1c(Cl)cccc1NC(=S)NC(=O)c1ccc(Cl)cc1", "note": "[Compound 4h]", "values": [
      {"measurement": "IC50", "setting": "jack bean urease (JBU) [1]", "value": 0.0229, "unit": "µM"},
      {"measurement": "DPPH free radical scavenging activity", "setting": "[2]", "value": "good activity"}
    ]}
  ]
}
